Experimental data taken from US7879566B2, “Methods for the identification of modulators of OSGPR114 or OSGPR78 activity, and their use in the treatment of disease” (OSI Pharmaceuticals, Inc., priority 2003, dated 2011).

How the values were obtained:
ERK in HCT-8 cells = test: ERK phosphorylation by LPA; format: cell-based, human; settings: 10 μM LPA, 3 mins
Method: (§1) FIG. 23: Ability of LPA to phosphorylate ERK in cell lines known to express OSGPR114. 10 μM LPA and 1 μM EGF were used for this experiment, and the cells were stimulated with ligand for 3 mins prior to lysing.
(§2) One of the principal proliferative signaling pathways is the activation of ERK. […] However, the ability of LPA acting at OSGPR114 to effect ERK is unknown. HCT-8 cells, which express OSGPR114 at high levels, provide one of the best models available. […] This evidence supporting the hypothesis that LPA, likely acting at least in part at OSGPR114, induces ERK activation, a signaling pathway that is known to stimulate cellular proliferation.

ERK in ASPC-1 cells = test: ERK phosphorylation by LPA; format: cell-based, human; settings: 10 μM LPA, 3 mins
Method: as §1, §2

EGFR in HCT-8 cells = test: EGFR transactivation, Western blot with phospho-tyrosine specific antibody; format: cell-based, human; settings: 10 μM
Source text: FIG. 24: Western blot showing the ability of LPA to transactivate EGFR in HCT-8 cells, as assessed using a phospho-tyrosine specific antibody.
The ability of LPA to phosphorylate ERK1/2 has been extensively described in the literature, and three principal mechanisms have been described for this effect. […] The first of these pathways involves β-arrestin recruitment and activation of Src, which then transactivates the RTK. The second of these pathways involves She which is recruited by LPA and can itself activate membrane-bound metalloproteases (e.g. ADAM10) which causes release of heparin-bound epidermal growth factor (EGF) which can then activate EGF receptor. EGF and activation of the EGF receptor is a well known proliferative pathway for many cell lines. The possibility of LPA causing transactivation of EGFR in HCT-8 cells was tested as the EGFR signaling pathway is known to be present and active in these cells. […] From the LPA-based literature, the potential for LPA to also transactivate other RTKs, such as PDGFR for example, in these cells is a very likely possibility.

OSGPR78 = target: T1, OSGPR78 (Homo sapiens, UniProt P43657, I33V); test: Yeast Fus1p-LacZ β-galactosidase reporter assay, OSGPR78-transformed yeast; format: cell-based; settings: Galpha i and Galpha 12/13 family chimeras (13393, 15074, 13395)
T1 construct: expressed in transfected cells; host or cells: engineered yeast (GPA1 replaced by G-alpha chimeras, STE3 deleted; Fus1p-LacZ reporters)
T1 sequence (P43657 1-344 I33V): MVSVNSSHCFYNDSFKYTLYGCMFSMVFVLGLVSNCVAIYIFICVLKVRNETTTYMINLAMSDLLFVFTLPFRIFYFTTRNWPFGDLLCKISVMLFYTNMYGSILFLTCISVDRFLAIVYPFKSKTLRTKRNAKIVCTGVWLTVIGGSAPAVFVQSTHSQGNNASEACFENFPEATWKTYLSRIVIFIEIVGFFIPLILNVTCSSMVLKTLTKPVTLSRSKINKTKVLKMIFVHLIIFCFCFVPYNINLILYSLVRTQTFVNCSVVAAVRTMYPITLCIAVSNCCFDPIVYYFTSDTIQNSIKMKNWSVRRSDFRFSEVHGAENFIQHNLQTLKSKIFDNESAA
Source text: The yeast cell-based reporter assays have previously been described in the literature (e.g. see Miret J. J., et. al. (2002) J. Biol. Chem. 277:6881-6887; Campbell R. M., et. al. (1999) Bioorg Med. Chem. Lett. 9:2413-2418; King K., et. al. (1990) Science. 250:121-123); WO 99/14344; WO 00/12704; and U.S. Pat. No. 6,100,042). Briefly, yeast cells have been engineered such that the endogenous yeast G-alpha (GPA1) has been deleted and replaced with G-protein chimeras constructed using multiple techniques. Additionally the endogenous yeast alpha-cell GPCR, STE3 has been deleted to allow for a […] expression of a mammalian GPCR of choice. In the yeast, elements of the pheromone signaling transduction pathway, which are conserved in eukaryotic cells (for example, the mitogen-activated protein kinase pathway), drive the expression of Fus1. By placing β-galactosidase (LacZ) under the control of the Fus1 promoter (Fus1p), a system has been developed whereby receptor activation leads to an enzymatic read-out. Different yeast strains (e.g. FIG. 6) denote the presence of different G-alpha chimeras (see “yeast reporter assays” in Results section below for definitions).
Yeast cells are transformed by an adaptation of the Lithium acetate method described by Agatep et.al. (Agatep, R., et. al. (1998) Transformation of Saccharomyces cerevisiae by the lithium acetate/single-stranded carrier DNA/polyethylene glycol (LiAc/ss-DNA/PEG) protocol. Technical Tips Online, Trends Journals, Elsevier). Briefly, yeast cells are grown overnight on yeast tryptone plates (YT). Carrier single-stranded DNA (10 μg), 2 μg of each of two Fus1p-LacZ reporter plasmids (one with URA3 selection marker and one with TRP1), 2 μg of OSGPR114 or OSGPR78 in yeast expression vector (2p origin of replication) and a lithium acetate/polyethylene glycol/TE buffer is pipetted into an Epindorf tube. The yeast expression plasmid containing the receptor/no receptor control has a LEU2 marker. Yeast cells are inoculated into this mixture and the reaction proceeds at 30° C. for 60 minutes. The yeast cells are then heat-shocked at 42° C. for 15 minutes. The cells are then washed and spread on selection plates. The selection plates are synthetic defined yeast media minus LEU, URA and TRP (SD-LUT). After incubating at 30° C. for 2-3 days, colonies that grow on the selection plates are then tested in the LacZ assay.
In order to perform fluorometric enzyme assays for β-galactosidase, yeast cells were grown overnight in liquid SD-LUT media to an unsaturated concentration (i.e. the cells are still dividing and have not yet reached stationary phase). They are diluted in fresh media to an optimal assay concentration and 90 μL of yeast cells were added to 96-well black polystyrene plates (Costar). Compounds, dissolved in ethanol and diluted in a 1% BSA solution to 10× concentration, were added to the plates and the yeast are placed at 30° C. for 4 h. After 4 h, the substrate for the β-galactosidase is added to each well: The substrate may yield a fluorescent or calorimetric read-out upon the activity of the β-galactosidase. In these experiments, Fluorescein di(β-D-galactopyranoside) was used (FDG), a substrate for the enzyme that releases fluorescein, allowing a fluorometric read-out. 20 μL of 500 μM FDG was used. After incubation of the cells with the substrate for 30-60 mins, 20 μL of 1 M sodium carbonate is added to terminate the reaction and enhance the fluorescent signal. The plates were then read in a fluorometer at 485/535 nm. As an alternate read-out system, the yeast are also engineered with a Fus1p-HIS gene which means that activation of the receptor can also be measured through the growth of the yeast in a […] media.

lysophosphatidic acid [LPA]
ERK activation (ERK in HCT-8 cells): stimulate ERK | ERK activation (ERK in ASPC-1 cells): stimulate ERK | EGFR transactivation (EGFR in HCT-8 cells): capable of transactivating EGFR | response in yeast G-alpha chimera strains (OSGPR78): optimal for LPA response
